Earlier results in patent US8513407B2, “Process for the preparation of N-acyl-(epi)K5-amine-O-sulfate-derivatives and products thus obtained” (GLYCORES 2000 S.r.l., priority 2002, dated 2013).

Test system: HIV
Settings: compared with K5-O-oversulfate and heparin

Question: For K5-N,O-oversulfate, which anti-HIV activity is on record?
Answer: Its anti-HIV activity is “more active than K5-O-oversulfate and much more active than heparin”.
